This note sets out measurements from patent publication US9533990B2, “Inhibitors of secretion of hepatitis B virus antigens” (priority 2010, dated 2017).

What is called melting point is the temperature of the solid-liquid transition.

The structures appear in SMILES notation.

For the compound `Fc1cccc(Cl)c1C1C=C(c2cccc(Cl)c2)Nc2ncnn21` (stereo not shown) [Example 6, 7-(2-Chloro-6-fluorophenyl)-5-(3-chlorophenyl)-4,7-dihydro-[1,2,4]triazolo[1,5-a]pyrimidine], the melting point was 246 to 248 °C.
